Laboratory results taken from patent publication US20120196824A1, “THERAPEUTIC AGENT FOR CEREBRAL INFARCTION” (MITSUBISHI TANABE PHARMA CORPORATION, priority 2009, published 2012).
Structures can show the parent of a compound that is named as a salt.

Legend:
[1] = system: Mouse Ischemic Stroke Model; assay: Infarct volume suppressive and motor function improving effects in mouse ischemic stroke model (Rose Bengal photothrombosis, TTC staining, Rota-rod); assay type: in vivo; conditions: dose of 10 mg/kg; for infarct volume suppression rate (%): two administrations, measured two days later, TTC staining; for walking time (%): walking time on Rota-Rod with Vehicle 100%, two days later
Description: Mouse was fixed under isoflurane anesthesia and the scalp was incised. Rose Bengal (7.5 mg/kg) was administered i.v., and green light (550 nm, Hamamatsu Photonics, K.K.) was immediately irradiated at 2 mm side and 1 mm above the bregma for 5 min. Thereafter, the scalp was bonded with an instant glue. To the test drug and control groups was given the first administration after the mice awoke, and they were subjected to the administration again the next day. Two days later, motor function was evaluated by Rota-rod (up to 60 sec, walking time on Rota-Rod was measured). Then the brain was removed, sliced in 1 mm, the site of infaction was decided by 1% TTC staining and the volume was measured by image analysis. The infarct volume suppression rate (%) and walking time (%) on Rota-Rod with Vehicle 100% at the dose of 10 mg/kg are shown in the following Table. In addition, walking time (sec) on Rota-Rod and infarct volume suppression rate (mm^3) when 3-deazaadenosine was used as a test drug are shown in FIG. 1 and FIG. 2.

[2] = target: T1, Human-recombinant-S-Adenosyl-L-Homocysteine Hydrolase (Homo sapiens, UniProt P23526); assay: Measurement of enzyme inhibitory activity (hydrolysis of S-Adenosyl-L-Homocysteine, HPLC); assay type: biochemical; conditions: S-Adenosyl-L-Homocysteine 10 μM, pH 7.2, 37° C., 15 min
T1 construct: purchased Diazyme Laboratories
Method in brief: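 Reactions contained recombinant human SAH hydrolase (50 ng), 10 μM S-adenosyl-L-homocysteine and adenosine deaminase (4 units) in 50 mM phosphate buffer, pH 7.2, with 1 mM EDTA, run 15 min at 37 °C. Remaining substrate was measured by reversed-phase HPLC (UV 258 nm). Inhibitory rate compared substrate depletion with versus without compound.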

[3] = system: homocysteine synthesis; assay: Measurement of homocysteine synthesis inhibitory activity in vivo (methionine-loaded mouse, plasma homocysteine); conditions: dose of 10 mg/kg, oral, BALB/c mouse; methionine water 1 hr later; plasma 30 min after; read-out: activity (homocysteine synthesis inhibitory rate)
Description: A sample was orally administered to BALB/c mouse and, 1 hr later, methionine water (50 g/L) was orally administered at a proportion of 10 ml/kg. 30 min later, blood samples were collected with heparin from the abdominal vein and plasma was obtained. The plasma homocysteine concentration was measured by treating the plasma with tributylphosphine, removing protein with 10% trichloroacetic acid (TCA), fluorescent labeling the supernatant with 4-fluoro-7-sulfobenzofurazan ammonium salt (SBD-F) under alkali conditions, and quantifying by HPLC. The homocysteine synthesis inhibitory rate of the sample was determined with the difference in the homocysteine value between methionine water-loaded animal and methionine water-unloaded animal as 100%. The detailed conditions of HPLC were as follows.
column used: Wakopak^R HandyODS 150*4.6 mm (Wako Pure Chemical Industries, Ltd.) elution condition: 1.0 ml/min elution solvent: 0.1M phosphate buffer (pH 6.0) 2% methanol wavelength: ex 385 nm em 515 nm

T1 sequence (P23526 whole entry): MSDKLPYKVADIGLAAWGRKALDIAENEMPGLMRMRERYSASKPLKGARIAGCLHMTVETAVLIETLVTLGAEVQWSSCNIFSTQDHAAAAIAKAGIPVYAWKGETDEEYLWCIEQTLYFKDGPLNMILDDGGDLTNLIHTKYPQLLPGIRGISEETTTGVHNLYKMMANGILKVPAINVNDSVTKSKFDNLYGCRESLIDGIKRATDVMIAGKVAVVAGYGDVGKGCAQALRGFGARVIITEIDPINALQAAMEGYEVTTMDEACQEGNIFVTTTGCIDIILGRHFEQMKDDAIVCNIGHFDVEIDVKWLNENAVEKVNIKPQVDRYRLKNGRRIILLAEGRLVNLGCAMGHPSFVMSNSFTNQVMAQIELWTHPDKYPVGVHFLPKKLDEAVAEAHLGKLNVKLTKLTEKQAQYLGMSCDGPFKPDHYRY

Compound	IC50 [2] [nM]	infarct volume suppression rate (%) [1] [%]	walking time (%) [1] [%]	inhibition in vivo at 10 mg/kg [3] [%]
Nc1nccc2c1ncn2[C@@H]1O[C@H](CO)[C@@H](O)[C@H]1O [3-deazaadenosine, reference compound]	–	14	170	–
CCNCCNC(=O)CN(CC(=O)N(C)N1Cc2ccc(F)cc2C1)c1cc(-c2noc(C)n2)ccc1C.Cl [Example 20, N^2-{2-[(5-fluoro-1,3-dihydro-2H-isoindol-2-yl)(methyl)amino]-2-oxoethyl}-N^2-[2-methyl-5-(5-methyl-1,2,4-oxadiazol-3-yl)phenyl]-N^1-[2-(ethylamino)ethyl]glycinamide]	39	26	240	≥ 40
CCN1C(=O)CCc2cc(N(CC(=O)NCCNC(C)C)CC(=O)N(C)N3Cc4ccccc4C3)c(C)cc21 [Example 176, N^2-{2-[1,3-dihydro-2H-isoindol-2-yl(methyl)amino]-2-oxoethyl}-N^2-(1-ethyl-7-methyl-2-oxo-1,2,3,4-tetrahydroquinolin-6-yl)-N^1-[2-(isopropylamino)ethyl]glycinamide]	63	–	–	≥ 40
CCNCCNC(=O)CN(CC(=O)N(C)N1Cc2ccc(F)cc2C1)c1cc2c(C)noc2cc1C [Example 183, N^2-(3,6-dimethyl-1,2-benzisoxazol-5-yl)-N^2-{2-[(5-fluoro-1,3-dihydro-2H-isoindol-2-yl)(methyl)amino]-2-oxoethyl}-N^1-[2-(ethylamino)ethyl]glycinamide dihydrochloride]	–	22	240	–
Cc1cc2c(C)noc2cc1N(CC(=O)NCCNC(C)C)CC(=O)N(C)N1Cc2ccccc2C1 [Example 184, N^2-{2-[1,3-dihydro-2H-isoindol-2-yl(methyl)amino]-2-oxoethyl}-N^2-(3,5-dimethyl-1,2-benzisoxazol-6-yl)-N^1-[2-(isopropylamino)ethyl]glycinamide]	37	–	–	≥ 40
CCNCCNC(=O)CN(CC(=O)N(C)N1Cc2ccccc2C1)c1cc2onc(C)c2cc1C [Example 185, N^2-{2-[1,3-dihydro-2H-isoindol-2-yl(methyl)amino]-2-oxoethyl}-N^2-(3,5-dimethyl-1,2-benzisoxazol-6-yl)-N^1-[2-(ethylamino)ethyl]glycinamide]	8	–	–	≥ 40
CCNCCNC(=O)CN(CC(=O)N(C)N1Cc2ccc(F)cc2C1)c1cc2c(cc1C)CCC2=O [Example 215, N^2-{2-[(5-fluoro-1,3-dihydro-2H-isoindol-2-yl)(methyl)amino]-2-oxoethyl}-N^2-(6-methyl-3-oxo-2,3-dihydro-1H-inden-5-yl)-N^1-[2-(ethylamino)ethyl]glycinamide]	47	19	340	≥ 40
CCNCCNC(=O)CN(CC(=O)N(C)N1Cc2ccccc2C1)c1cc2cnn(C)c2cc1C [Example 241, N^2-{2-[1,3-dihydro-2H-isoindol-2-yl(methyl)amino]-2-oxoethyl}-N^2-(1,6-dimethyl-1H-indazol-5-yl)-N^1-[2-(ethylamino)ethyl]glycinamide hydrochloride]	9	–	–	≥ 40
CCNCCNC(=O)CN(CC(=O)N(C)N1Cc2ccc(F)cc2C1)c1cc2cnn(C)c2cc1C [Example 244, N^2-(1,6-dimethyl-1H-indazol-5-yl)-N^2-{2-[(5-fluoro-1,3-dihydro-2H-isoindol-2-yl)(methyl)amino]-2-oxoethyl}-N^1-[2-(ethylamino)ethyl]glycinamide hydrochloride]	–	26	330	≥ 40
CCNCCNC(=O)CN(CC(=O)N(C)N1Cc2ccc(F)cc2C1)c1cc2cnn(CC(F)F)c2cc1C [Example 253, N^2-[1-(2,2-difluoroethyl)-6-methyl-1H-indazol-5-yl]-N^2-{2-[(5-fluoro-1,3-dihydro-2H-isoindol-2-yl)(methyl)amino]-2-oxoethyl}-N^1-[2-(ethylamino)ethyl]glycinamide hydrochloride]	20	16	230	≥ 40

Now from value to compound, other results behind:

IC50 [2] [nM]	Compound	infarct volume suppression rate (%) [1] [%]	walking time (%) [1] [%]	inhibition in vivo at 10 mg/kg [3] [%]
47	CCNCCNC(=O)CN(CC(=O)N(C)N1Cc2ccccc2C1)c1ccc(-c2noc(C)n2)cc1C [Example 65, N^2-{2-[1,3-dihydro-2H-isoindol-2-yl(methyl)amino]-2-oxoethyl}-N^2-[2-methyl-4-(5-methyl-1,2,4-oxadiazol-3-yl)phenyl]-N^1-[2-(ethylamino)ethyl]glycinamide]	30	250	≥ 40
43	Cc1ccc(-c2nn(C)c(=O)o2)cc1N(CC(=O)NCCNC(C)C)CC(=O)N(C)N1Cc2ccccc2C1 [Example 88, N^2-{2-[1,3-dihydro-2H-isoindol-2-yl(methyl)amino]-2-oxoethyl}-N^2-[2-methyl-5-(4-methyl-5-oxo-4,5-dihydro-1,3,4-oxadiazol-2-yl)phenyl]-N^1-[2-(isopropylamino)ethyl]glycinamide]	–	–	20 to 40
53	CCNCCNC(=O)CN(CC(=O)N(C)N1Cc2ccccc2C1)c1cc(-c2nn(C)c(=O)o2)ccc1C [Example 89, N^2-{2-[1,3-dihydro-2H-isoindol-2-yl(methyl)amino]-2-oxoethyl}-N^2-[2-methyl-5-(4-methyl-5-oxo-4,5-dihydro-1,3,4-oxadiazol-2-yl)phenyl]-N^1-[2-(ethylamino)ethyl]glycinamide]	–	–	20 to 40
48	CCNCCNC(=O)CN(CC(=O)N(C)N1Cc2ccccc2C1)c1cc(-c2nn(CC)c(=O)o2)ccc1C [Example 92, N^2-{2-[1,3-dihydro-2H-isoindol-2-yl(methyl)amino]-2-oxoethyl}-N^2-[5-(4-ethyl-5-oxo-4,5-dihydro-1,3,4-oxadiazol-2-yl)-2-methylphenyl]-N^1-[2-(ethylamino)ethyl]glycinamide]	–	–	≥ 40
35	CCNCCNC(=O)CN(CC(=O)N(C)N1Cc2ccccc2C1)c1ccc(-c2nc(C)no2)cc1C [Example 229, N^2-{2-[1,3-dihydro-2H-isoindol-2-yl(methyl)amino]-2-oxoethyl}-N^2-[2-methyl-4-(3-methyl-1,2,4-oxadiazol-5-yl)phenyl]-N^1-[2-(ethylamino)ethyl]glycinamide]	–	–	≥ 40
